pIC50: −log10 of the molar value. Read-outs that look alike come from different tables or passages of the source.
Columns and labels:
[1] = molecular target: T1, His-GST-TVMV-hRIPK1(1-324) (Homo sapiens, UniProt Q13546); experiment: RIPK1 HTRF Binding Assay
T1 construct: The coding region of human RIPK1(1-324) flanked by NdeI site at 5′ end; made in house; host or cells: Spodoptera frugiperda (Sf9) insect cells, baculovirus
T1 sequence (Q13546 1-324): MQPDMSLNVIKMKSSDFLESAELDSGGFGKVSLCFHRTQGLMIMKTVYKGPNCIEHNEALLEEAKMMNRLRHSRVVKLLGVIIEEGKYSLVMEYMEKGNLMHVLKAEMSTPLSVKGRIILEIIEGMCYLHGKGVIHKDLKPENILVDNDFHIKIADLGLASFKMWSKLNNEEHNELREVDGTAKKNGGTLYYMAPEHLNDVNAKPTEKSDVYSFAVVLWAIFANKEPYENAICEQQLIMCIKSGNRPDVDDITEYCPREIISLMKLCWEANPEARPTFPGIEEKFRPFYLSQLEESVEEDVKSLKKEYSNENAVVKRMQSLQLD

[2] = test system: MLKL phosphorylation in HT29-L23 human colorectal adenocarcinoma cells; experiment: MLKL Phosphorylation High-Content Assay; type: cell-based; details: Homo sapiens
Method in brief: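 IC50 and Ymax obtained by 4-parameter logistic fitting of MLKL phosphorylation, measured as mean circ-ring average intensity ratio from high-content images. Staining used an anti-phospho-S358 MLKL antibody overnight at 4° C., following six-hour cell incubation at 37° C.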

[3] = x marks IC50 class <20 nM, read-out: RIPK1 HTRF binding <20 nM
[4] = x marks IC50 class 20-200 nM, read-out: pMLKL cell activity 20-200 nM
[5] = x marks IC50 class <20 nM, read-out: pMLKL cell activity <20 nM
[6] = x marks IC50 class 20-200 nM, read-out: RIPK1 HTRF binding 20-200 nM
[7] = x marks IC50 class >200 nM, read-out: pMLKL cell activity >200 nM
[8] = x marks IC50 class >200 nM, read-out: RIPK1 HTRF binding >200 nM

**Q.** How did the pIC50 [1, 3] turn out when `Cc1ncc(-c2ccn3nc(N)nc3c2)cc1C(=O)NCc1ccccc1OCC1CC1` [Example 250, 5-{2-amino-[1,2,4]triazolo[1,5-a]pyridin-7-yl}-N-{[2-(cyclopropylmethoxy)phenyl]methyl}-2-methylpyridine-3-carboxamide] was run?
**A.** > 7.70

**Q.** What about the pIC50 [2, 4] of the same compound?
**A.** 6.70 to 7.70

**Q.** `[2H]C([2H])(NC(=O)c1cc(-c2ccn3nc(N)nc3c2)cnc1C)c1cc(OC(F)(F)F)ccc1F` [Example 252, 5-{2-amino-[1,2,4]triazolo[1,5-a]pyridin-7-yl}-N-{[2-fluoro-5-(trifluoromethoxy)phenyl](deutero)methyl}-2-methylpyridine-3-carboxamide] was tested. Which pIC50 [1, 3] did it give?
**A.** > 7.70

**Q.** What about the pIC50 [2, 5] of the same compound?
**A.** > 7.70

**Q.** Which results are given for `[2H]C([2H])(NC(=O)c1cc(-c2ccn3nc(N)nc3c2)cnc1C)c1cc(F)cc(F)c1OCC1CC1` [Example 253, 5-{2-amino-[1,2,4]triazolo[1,5-a]pyridin-7-yl}-N-{[2-(cyclopropylmethoxy)-3,5-difluorophenyl](deutero)methyl}-2-methylpyridine-3-carboxamide]?
**A.** pIC50 [1, 3]: > 7.70; pIC50 [2, 5]: > 7.70

**Q.** With `Cc1ncc(-c2ccn3nc(N)nc3c2)cc1C(=O)NCc1cc(C(F)(F)F)ccc1Cl` [Example 254] as the compound, how does the pIC50 [1, 3] read?
**A.** > 7.70

**Q.** What about the pIC50 [2, 4] of the same compound?
**A.** 6.70 to 7.70

**Q.** With `Cc1ncc(-c2ccn3nc(N)nc3c2)cc1C(=O)NC(C)c1cc(OC(F)(F)F)ccc1F` (stereo not shown) [Example 255, 5-{2-amino-[1,2,4]triazolo[1,5-a]pyridin-7-yl}-N-{1-[2-fluoro-5-(trifluoromethoxy)phenyl]ethyl}-2-methylpyridine-3-carboxamide] as the compound, how does the pIC50 [1, 3] read?
**A.** > 7.70

**Q.** What about the pIC50 [2, 4] of the same compound?
**A.** 6.70 to 7.70

**Q.** `Cc1ncc(C(=O)NCc2cc(OC(F)(F)F)ccc2F)cc1-c1ccn2nc(N)nc2c1` [Example 256, 5-{2-amino-[1,2,4]triazolo[1,5-a]pyridin-7-yl}-N-{[2-fluoro-5-(trifluoromethoxy)phenyl]methyl}-6-methylpyridine-3-carboxamide] was tested. Which pIC50 [1, 6] did it give?
**A.** 6.70 to 7.70

**Q.** And the pIC50 [2, 7]?
**A.** < 6.70

**Q.** How did the pIC50 [1, 6] turn out when `Cc1ncc(C(=O)NCc2c(F)cc(F)cc2OCC2CCCC2)cc1-c1ccn2nc(N)nc2c1` [Example 257, 5-{2-amino-[1,2,4]triazolo[1,5-a]pyridin-7-yl}-N{[2-(cyclopentylmethoxy)-4,6-difluorophenyl]methyl}-6-methylpyridine-3-carboxamide] was run?
**A.** 6.70 to 7.70

**Q.** What about the pIC50 [2, 7] of the same compound?
**A.** < 6.70

**Q.** How did the pIC50 [1, 3] turn out when `Cc1ncc(C(=O)NCc2cccnc2OCC2CCCC2)cc1-c1ccn2nc(N)nc2c1` [Example 258, 5-{2-amino-[1,2,4]triazolo[1,5-a]pyridin-7-yl}-N-{[2-(cyclopentylmethoxy)pyridin-3-yl]methyl}-6-methylpyridine-3-carboxamide] was run?
**A.** > 7.70

**Q.** And the pIC50 [2, 7]?
**A.** < 6.70

**Q.** What does the source list for `Cc1ncc(C(=O)NCc2cc(F)cc(F)c2OCC2CCCC2)cc1-c1ccn2nc(N)nc2c1` [Example 259, 5-{2-amino-[1,2,4]triazolo[1,5-a]pyridin-7-yl}-N-{[2-(cylcopentylmethoxy)-3,5-difluorophenyl]methyl}-6-methylpyridine-3-carboxamide]?
**A.** pIC50 [1, 3]: > 7.70; pIC50 [2, 4]: 6.70 to 7.70

**Q.** `Cc1ncc(C(=O)NCc2cc(F)cc(F)c2OCC2CC2)cc1-c1ccn2nc(N)nc2c1` [Example 260, 5-{2-amino-[1,2,4]triazolo[1,5-a]pyridin-7-yl}-N-{[2-(cyclopropylmethoxy)-3,5-difluorophenyl]methyl}-6-methylpyridine-3-carboxamide] was tested. Which pIC50 [1, 3] did it give?
**A.** > 7.70

**Q.** What about the pIC50 [2, 5] of the same compound?
**A.** > 7.70

**Q.** With `Cc1ncc(C(=O)NCc2cccnc2OCC2CCC2)cc1-c1ccn2nc(N)nc2c1` [Example 261, 5-{2-amino-[1,2,4]triazolo[1,5-a]pyridin-7-yl}-N-{[2-(cyclobutylmethoxy)pyridin-3-yl]methyl}-6-methylpyridine-3-carboxamide] as the compound, how does the pIC50 [1, 6] read?
**A.** 6.70 to 7.70

**Q.** And the pIC50 [2, 7]?
**A.** < 6.70

**Q.** With `Cc1ncc(C(=O)NCc2cc(F)ccc2OCC2CCCC2)cc1-c1ccn2nc(N)nc2c1` [Example 262, 5-{2-amino-[1,2,4]triazolo[1,5-a]pyridin-7-yl}-N-{[2-(cyclopentylmethoxy)-5-fluorophenyl]methyl}-6-methylpyridine-3-carboxamide] as the compound, how does the pIC50 [1, 3] read?
**A.** > 7.70

**Q.** And the pIC50 [2, 4]?
**A.** 6.70 to 7.70

**Q.** With `Cc1ncc(C(=O)NCc2ccccc2OCC2CCCC2)cc1-c1ccn2nc(N)nc2c1` [Example 263, 5-{2-amino-[1,2,4]triazolo[1,5-a]pyridin-7-yl}-N-{[2-(cyclopentylmethoxy)phenyl]methyl}-6-methylpyridine-3-carboxamide] as the compound, how does the pIC50 [1, 3] read?
**A.** > 7.70

**Q.** What about the pIC50 [2, 4] of the same compound?
**A.** 6.70 to 7.70

**Q.** How did the pIC50 [1, 3] turn out when `CCOc1ncc(-c2ccn3nc(N)nc3c2)cc1C(=O)NCc1cc(F)ccc1OC1CCCC1` [Example 264, 5-{2-amino-[1,2,4]triazolo[1,5-a]pyridin-7-yl}-N-{[2-(cyclopentyloxy)-5-fluorophenyl]methyl}-2-ethoxypyridine-3-carboxamide] was run?
**A.** > 7.70

**Q.** And the pIC50 [2, 5]?
**A.** > 7.70

**Q.** `CCOc1ncc(-c2ccn3nc(N)nc3c2)cc1C(=O)NCc1ccccc1SCC(F)(F)F` [Example 265, 5-{2-amino-[1,2,4]triazolo[1,5-a]pyridin-7-yl}-2-ethoxy-N-({2-[(2,2,2-trifluoroethyl)sulfanyl]phenyl}methyl)pyridine-3-carboxamide] was tested. Which pIC50 [1, 6] did it give?
**A.** 6.70 to 7.70

**Q.** What about the pIC50 [2, 7] of the same compound?
**A.** < 6.70

**Q.** With `CCOc1ncc(-c2ccn3nc(N)nc3c2)cc1C(=O)NCc1ccccc1SC(C)C` [Example 266, 5-{2-amino-[1,2,4]triazolo[1,5-a]pyridin-7-yl}-2-ethoxy-N-{[2-(propan-2-ylsulfanyl)phenyl]methyl}pyridine-3-carboxamide] as the compound, how does the pIC50 [1, 3] read?
**A.** > 7.70

**Q.** What about the pIC50 [2, 4] of the same compound?
**A.** 6.70 to 7.70

**Q.** `CCOc1ncc(-c2ccn3nc(N)nc3c2)cc1C(=O)NCc1ccccc1OC1CCCC1` [Example 267, 5-{2-amino-[1,2,4]triazolo[1,5-a]pyridin-7-yl}-N-{[2-(cyclopentyloxy)phenyl]methyl}-2-ethoxypyridine-3-carboxamide] was tested. Which pIC50 [1, 3] did it give?
**A.** > 7.70

**Q.** What about the pIC50 [2, 4] of the same compound?
**A.** 6.70 to 7.70

**Q.** `CCOc1ncc(-c2ccn3nc(N)nc3c2)cc1C(=O)NCc1ccccc1OCC1CCC1` [Example 268, 5-{2-amino-[1,2,4]triazolo[1,5-a]pyridin-7-yl}-N-{[2-(cyclobutylmethoxy)phenyl]methyl}-2-ethoxypyridine-3-carboxamide] was tested. Which pIC50 [1, 3] did it give?
**A.** > 7.70

**Q.** What about the pIC50 [2, 4] of the same compound?
**A.** 6.70 to 7.70

**Q.** Which results are given for `CCOc1ncc(-c2ccn3nc(N)nc3c2)cc1C(=O)NCCc1ccccc1Oc1ccccc1` [Example 269, 5-{2-amino-[1,2,4]triazolo[1,5-a]pyridin-7-yl}-2-ethoxy-N-[2-(2-phenoxyphenyl)ethyl]pyridine-3-carboxamide]?
**A.** pIC50 [1, 3]: > 7.70; pIC50 [2, 4]: 6.70 to 7.70

**Q.** How did the pIC50 [1, 3] turn out when `CCOc1ncc(-c2ccn3nc(N)nc3c2)cc1C(=O)NCc1ccccc1S(=O)(=O)c1ccccc1CO` [Example 270, 5-{2-amino-[1,2,4]triazolo[1,5-a]pyridin-7-yl}-2-ethoxy-N-({2-[2-(hydroxymethyl)benzenesulfonyl]phenyl}methyl)pyridine-3-carboxamide] was run?
**A.** > 7.70

**Q.** And the pIC50 [2, 4]?
**A.** 6.70 to 7.70

**Q.** `CCOc1ncc(-c2ccn3nc(N)nc3c2)cc1C(=O)NCc1ccccc1OC(F)F` [Example 271, 5-{2-amino-[1,2,4]triazolo[1,5-a]pyridin-7-yl}-N-{[2-(difluoromethoxy)phenyl]methyl}-2-ethoxypyridine-3-carboxamide] was tested. Which pIC50 [1, 6] did it give?
**A.** 6.70 to 7.70

**Q.** And the pIC50 [2, 7]?
**A.** < 6.70

**Q.** How did the pIC50 [1, 3] turn out when `CCOc1ncc(-c2ccn3nc(N)nc3c2)cc1C(=O)NCc1ccccc1OCC1CC1` [Example 272, 5-{2-amino-[1,2,4]triazolo[1,5-a]pyridin-7-yl}-N-{[2-(cyclopropylmethoxy)phenyl]methyl}-2-ethoxypyridine-3-carboxamide] was run?
**A.** > 7.70

**Q.** And the pIC50 [2, 4]?
**A.** 6.70 to 7.70

**Q.** `CCOc1ncc(-c2ccn3nc(N)nc3c2)cc1C(=O)NC[C@H]1C[C@@H]1COc1ccc(Br)cc1F` [Example 273, 5-{2-amino-[1,2,4]triazolo[1,5-a]pyridin-7-yl}-N-{[(1S,2S)-2-[(4-bromo-2-fluorophenoxy)methyl]cyclopropyl]methyl}-2-ethoxypyridine-3-carboxamide] was tested. Which pIC50 [1, 8] did it give?
**A.** < 6.70

**Q.** What about the pIC50 [2, 4] of the same compound?
**A.** 6.70 to 7.70

**Q.** How did the pIC50 [1, 8] turn out when `CCOc1ncc(-c2ccn3nc(N)nc3c2)cc1C(=O)NCC1(c2ccccc2F)CC1` [Example 274, 5-{2-amino-[1,2,4]triazolo[1,5-a]pyridin-7-yl}-2-ethoxy-N-{[1-(2-fluorophenyl)cyclopropyl]methyl}pyridine-3-carboxamide] was run?
**A.** < 6.70

**Q.** And the pIC50 [2, 4]?
**A.** 6.70 to 7.70

**Q.** Which results are given for `CCOc1ncc(-c2ccn3nc(N)nc3c2)cc1C(=O)NCc1ccccc1Sc1ccccc1CO` [Example 275, 5-{2-amino-[1,2,4]triazolo[1,5-a]pyridin-7-yl}-2-ethoxy-N-[(2-{[2-(hydroxymethyl)phenyl]sulfanyl}phenyl)methyl]pyridine-3-carboxamide]?
**A.** pIC50 [1, 3]: > 7.70; pIC50 [2, 5]: > 7.70

**Q.** How did the pIC50 [1, 8] turn out when `CCOc1ncc(-c2ccn3nc(N)nc3c2)cc1C(=O)NCC[C@@H](O)c1ccc(Cl)cc1` [Example 276, 5-{2-amino-[1,2,4]triazolo[1,5-a]pyridin-7-yl}-N-[(3R)-3-(4-chlorophenyl)-3-hydroxypropyl]-2-ethoxypyridine-3-carboxamide] was run?
**A.** < 6.70

**Q.** What about the pIC50 [2, 7] of the same compound?
**A.** < 6.70

— patent publication US10913738B2 (BRISTOL-MYERS SQUIBB COMPANY, priority 2017, dated 2021)
